“And” between values parts separate entries of the source, which are not always exact repeats. Equal entries are not always repeated.
What follows are compounds tested on P. falciparum 3D7 growth, pLDH absorbance (assay: P. falciparum 3D7 growth inhibition, dose response, strain 3D7 (AID 2305)).

| SMILES | IC50 |
| --- | --- |
| COc1cccc(C(=O)Nc2ccc(Oc3ccc(Cl)cc3)cc2)c1 | 960 nM |
| CCCCCCCCNc1c2ccc(Cl)cc2nc2ccc(OC)cc12 | 810 nM |
| Cc1cccn2c(=O)c3cc(C(=O)NCc4cccnc4)c(=N)n(CCc4ccccc4)c3nc12 | 710 nM |
| CC(C)NCc1cccc(-c2ccc(NC(=O)c3cccc(C#N)c3)cc2)c1 | 320 nM |
| COc1ccc(CNCCCCCCNCc2ccc(OC)c3ccccc23)c2ccccc12 | 580 nM |
| NC(=O)c1cccc(Nc2nccc(Nc3ccc(Oc4cccc5ccccc45)cc3)n2)c1 | 1150 nM |
| CCCCOc1cc(OC)c2ccccc2c1CCNCCCCNCCc1c(OCCCC)cc(OC)c2ccccc12 | 1050 nM |
| O=C(/C=C/c1ccc(Cl)c(Cl)c1)N1CCC(CNCc2cccc3cc[nH]c23)CC1 | 1220 nM |
| CC(=O)Nc1ncc(C(=O)Nc2cccc(-c3ccc(-c4nc5ccc(F)cc5[nH]4)cc3)c2)s1 | 620 nM |
| CC(C)(CNC(=O)[C@@H]1CCCN(CCOc2ccc(Cl)cc2)C1)c1nc(-c2ccc(Cl)c(O)c2)c(-c2ccncc2)[nH]1 | 880 nM |
| CN1CCN(c2ccnc3ccc(NC(=O)Cc4ccc5ccccc5c4)cc23)CC1 | 760 nM |
| Cc1ccc2nc(-c3ccc(C=CC(=O)NCc4ccc(Cl)c(Cl)c4)cc3)[nH]c2c1 | 900 nM |
| CN(Cc1cnc2nc(N)nc(N)c2n1)c1ccc(C(=O)NC(CCC(=O)O)C(=O)O)cc1 (centres undefined) | 180 nM |
| c1cncc(-c2cc(N3CCc4ccccc4C3)nc(-c3ccncc3)n2)c1 | 40 nM |
| O=C(NCCCCCN1CCC(c2c[nH]c3ccccc23)CC1)c1ccc(Cl)c(Cl)c1 | 1360 nM |
| CC(=O)Nc1ccc2[nH]cc(C3CCN(CC4CCC(NC(=O)/C=C/c5ccc(Cl)c(Cl)c5)CC4)CC3)c2n1 (centres undefined) | 260 nM |
| COc1ccc(Nc2cc(C)nc(NCc3ccc4c(c3)OCO4)n2)cc1 | 770 nM |
| CCCCOC(=O)NCCCC[C@H](NC(=O)OC(C)(C)C)C(=O)N[C@H](C(=O)OC(c1ccccc1)c1ccccc1)[C@H]1O[C@@H](n2ccc(=O)[nH]c2=O)[C@@H]2OC(C)(C)O[C@@H]21 | 1090 nM |
| CCN(CCCN1CCCCC1)c1cc(C)nc(Nc2ccc(C)cc2C(F)(F)F)n1 | 540 nM |
| COc1ccc(CNC2CCN(C)CC2)cc1-c1ccc(S(=O)(=O)NCc2ccccc2)cc1 | 600 nM |
| FC(F)(F)COc1ccc2ccccc2c1CNCCCCCCNCc1c(OCC(F)(F)F)ccc2ccccc12 | 350 nM |
| Cc1ccc(C)c2sc(N(CCCn3ccnc3)C(=O)c3ccco3)nc12 | 870 nM |
| CCOC(=O)C1=C(C)N=c2sc(=Cc3cc(Cl)ccc3O)c(=O)n2C1c1cc(OC)c(OC)cc1Br (centres undefined) | 990 nM |
| COc1cc2c(c(Cl)c1OC)CCN(C(=O)C(F)(F)F)CC2c1ccccc1 (centres undefined) | 440 nM |

| SMILES | IC50 |
| --- | --- |
| COc1ccc(N2CCc3c(-c4cccc5cnccc45)cc(C)nc32)c(C)c1 | 660 nM |
| COc1ccc(CN(C)CCCCc2ccc(NC(=O)COc3cccc4sc5ccccc5c(=O)c34)cc2)cc1OC | 810 nM |
| CC(C)NCc1cccc(-c2cccc(NC(=O)c3ccc(C#N)cc3)c2)c1 | 650 nM |
| CN1CCN(c2ccnc3ccc(NC(=O)Nc4ccc5c(c4)CCC5=O)cc23)CC1 | 330 nM |
| CC1CC(NCCCNc2cc(=O)c3ccccc3[nH]2)c2cc(Cl)c(Cl)c(Cl)c21 (centres undefined) | 720 nM |
| O=C(N[C@@H](Cc1ccccc1)C(=O)NC1CCCCC1)c1ccc(O)c(-c2ccc(Cl)c(Cl)c2)c1 | 230 nM |
| Cc1ccc(Nc2ccnc(Nc3ccc4c(c3)CS(=O)(=O)C4)n2)cc1O | 720 nM |
| COc1cc(OC)c(OC)cc1C=NNc1cc(C)nc2ccccc12 | 300 nM |
| O=C(Cc1ccc(-n2cnnn2)cc1)N(Cc1cncn1Cc1cccc(C(F)(F)F)c1)CC1CC1 | 960 nM |
| CCc1ccc(C2CCN(CCCCNC(=O)c3ccc(NC(=O)c4ccc(Cl)cc4)cc3)CC2)cc1 | 650 nM |
| CN(C)Cc1ccc(-c2ccc3c(Nc4ccc(Oc5ccccn5)cc4)ccnc3c2)o1 | 160 nM |
| NCc1ccc(CNCc2cccc(-c3cccc(-c4nc5ccc(F)cc5[nH]4)c3)c2)cc1 | 310 nM |
| COc1cc(-c2nc(-c3ccccc3)c(-c3ccc(C(=O)c4ccc(F)cc4)cc3)[nH]2)cc(OC)c1O | 660 nM |
| CCCOc1ccccc1-c1nc2[nH]c3c(c2c(=O)[nH]1)CCN(C)C3 | 370 nM |
| CC(C)c1ccc(NC(=O)NC2CCN(CCCCCN(C)C(=O)/C=C/c3ccc(Cl)c(Cl)c3)C2)cc1 (centres undefined) | 830 nM |
| Oc1cc(Nc2ccnc3ccc(I)cc23)c(F)cc1Cl | 1230 nM |
| O=C(Nc1cccc(CN2CCCN(CCc3ccccc3)CC2)c1)c1cc2ccccc2s1 | 1130 nM |
| O=C(NC1CCC(N2CCC(Cc3ccc(F)cc3)CC2)CC1)c1cc2ccccc2[nH]1 (centres undefined) | 870 nM |
| COc1ccc(C=NNc2cc(C)nc3ccc(C)cc23)c2ccccc12 | 860 nM |
| Fc1cccc(Nc2nc(NCCc3ccc(Cl)cc3)nc(Nc3cccc(F)c3)n2)c1 | 1070 nM |
| CCNc1cc(C(=O)N[C@@H](Cc2ccccc2)[C@H](O)CNCc2cc(C#N)ccc2OC)cc(N2CCCC2=O)c1 | 1230 nM |
| CCn1ccc2c(N3CCCC3=O)cc(C(=O)N[C@@H](Cc3ccccc3)[C@H](O)CNCc3cccc(OC)c3)cc21 | 590 nM |
| c1cc(-c2ccc(CN3CCN(c4ccncc4)CC3)cc2)cc(-c2nc3ccccc3[nH]2)c1 | 140 nM |
| CCN(CCCN1CCCCC1)c1cc(C)nc(Nc2cccc3c2CCCC3)n1 | 1030 nM |

| SMILES | IC50 |
| --- | --- |
| CCC(CC(NCCCCNC(=O)c1ccc(NC(=O)c2ccc(Cl)cc2)cc1)c1ccccc1)c1ccccc1OC (centres undefined) | 670 nM and 790 nM |
| CCC(C)c1ccc(-n2c(Nc3ccccc3)nc3cc(S(N)(=O)=O)ccc32)cc1 (centres undefined) | 1060 nM |
| Cc1ccc(C)c(NC(=O)Nc2ccc(C)c(-c3ccc(C(=O)Nc4ccncc4)cc3)c2)c1 | 620 nM |
| CC(C)(C)n1nnnc1C(c1cccnc1)N(Cc1ccccc1)Cc1ccc(Cl)cc1 (centres undefined) | 740 nM |
| c1ccc2c(c1)CN(CC1CCOCC1)CC1(CCN(Cc3c[nH]c4cnccc34)CC1)O2 | 1550 nM |
| COc1cccc(NC(=O)Cn2c(C)c(C(=O)C(F)(F)F)c3ccccc32)c1 | 830 nM |
| c1ccc2oc(-c3cc4ccncc4cc3OC3CCNCC3)cc2c1 | 1470 nM |
| Cc1ccc2c(NN=Cc3cccc([N+](=O)[O-])c3)cc(C)nc2c1 | 270 nM |
| CCCN(CCC)C(C)CCC(C)Nc1c2ccc(Cl)cc2nc2ccc(OC)cc12 (centres undefined) | 70 nM |
| Cc1cc(N[C@@H](CC(C)C)C(=O)Nc2ccccc2)nc(NCc2ccccc2C)n1 | 780 nM |
| Nc1nc(N)c2c(Cc3ccccc3)cccc2n1 | 830 nM |
| c1cc(CNCc2ccc3c(c2)OCO3)cc(-c2cccc(CNc3ccc4ncccc4c3)c2)c1 | 760 nM |
| COC(=O)C(=C(C)C)N1C(=O)[C@@H](NC(=O)OCc2ccccc2)[C@H]1SS[C@@H]1[C@H](NC(=O)OCc2ccccc2)C(=O)N1C(C(=O)OC)=C(C)C | 430 nM |
| CCn1ncc2c(N3CCCC3=O)cc(C(=O)N[C@@H](Cc3ccccc3)[C@H](O)CNC(C)(C)c3cccc(OC)c3)cc21 | 110 nM |
| O=C(Nc1cccc(CN2CCCN(Cc3ccc(O)cc3)CC2)c1)c1cccc(C(F)(F)F)c1 | 310 nM |
| NC(N)=Nc1ccc(CCc2ccc(N=C(N)N)cc2)cc1 | 290 nM |
| CCc1cc(CNC2CCN(CCc3c(F)cnc4ccc(OC)nc34)CC2)cc2c1OCCO2 | 260 nM |
| COc1ccc2nccc([C@@H](O)CN3CCC(NCc4nc5c(F)cccc5[nH]4)CC3)c2c1 | 470 nM |
| Cc1ccc(/C=C/C(=O)NCCCCCN2CCC(c3c[nH]c4ccccc34)CC2)cc1 | 1010 nM |
| O=C(/C=C/c1ccc(F)c(C(F)(F)F)c1)N1CCC(CN2CCC(c3c[nH]c4ccccc34)CC2)CC1 | 920 nM |
| O=C(NCC1CN(Cc2ccc(N3CCCC3)o2)CCCO1)c1ccc2c(c1)OCO2 (centres undefined) | 840 nM |
| O=C(NCc1ccc(Cl)c(Cl)c1)c1cccc(C2CCCN(Cc3ccc4nc[nH]c4c3)C2)c1 (centres undefined) | 930 nM |
| CS(=O)(=O)Nc1ccc2[nH]cc(C3CCN(CC4CCC(NC(=O)/C=C/c5ccc(Cl)c(Cl)c5)CC4)CC3)c2c1 (centres undefined) | 850 nM |
| COCCN(C)CCCOc1cc2c(cc1OC)ncn2-c1cc(OCc2ccccc2C(F)(F)F)c(C(N)=O)s1 | 710 nM |

| SMILES | IC50 |
| --- | --- |
| O=C(NCc1cccc(C(F)(F)F)c1)[C@@H]1CCCN1C(=O)c1ccc(O)c(-c2ccc(Cl)c(Cl)c2)c1 | 790 nM |
| C=CCNS(=O)(=O)c1ccc(NC(=O)C(C)Oc2ccc([N+](=O)[O-])cc2)cc1 (centres undefined) | 1220 nM |
| COc1cc2c(cc1OC)C(C(=O)Nc1ccc(C(F)(F)F)cc1)C(c1cccs1)N(C)C2=O (centres undefined) | 160 nM |
| Cc1ccc2nc(C)n(C3CCN(C(=O)Cc4ccccc4C)CC3)c2c1 | 240 nM |
| O=C(N[C@H]1CCN(CCc2ccc(O[C@H]3CCNC3)c(F)c2)C1)c1ccc(Cl)c(Cl)c1 | 1190 nM |
| c1cc(CNCCc2ccncc2)cc(-c2ccc(-c3nc4ccccc4[nH]3)s2)c1 | 340 nM |
| CCNC(=O)N1CCc2ccc(Oc3nc(NCc4ccccc4OC)ncc3C)cc2CC1 | 1070 nM |
| O=C(Nc1cn(-c2ccc(OCc3cccc(F)c3)c(Cl)c2)c2ncncc12)c1ccncc1 | 170 nM |
| Cc1cccc2[nH]c(-c3ccc(-c4ccc(NC(=O)Nc5ccc(Cl)c(Cl)c5)cc4)s3)nc12 | 180 nM |
| Cc1cccc(-c2ccc(NC(=O)Nc3ccc4nccc(N5CCN(C)CC5)c4c3)cc2C)n1 | 210 nM |
| CN(C)c1nc2cc(-n3cnc4cc(-c5ccc(Cl)cc5)sc4c3=O)ccc2n1CCCN1CCCC1 | 850 nM |
| COc1cccc2c(NN=Cc3cccc(F)c3)ccnc12 | 930 nM |
| CCCCSc1ccc2nc(-c3c[nH]c4ccc(C#N)cc34)cn2c1 | 950 nM |
| N[C@@H](COc1cccc2c(-c3ccncc3)c(-c3cccc(NC(=O)Nc4ccccc4)c3)nn12)c1ccccc1 | 410 nM |
| O=C(Cn1c(CCc2cccc(F)c2F)nc(=O)c2ccccc21)N(Cc1ccc(-c2ccc(C(F)(F)F)cc2)cc1)C1CCN(C2CCSCC2)CC1 | 860 nM |
| CN1CCN(c2ccnc3cc4ccccc4cc23)CC1 | 950 nM |
| CCCCCCCCc1c(C)[nH]c(C)c(C#N)c1=O | 400 nM |
| C[C@H](Cc1ccc(C[C@@H](C)NCC(O)c2cc(Cl)c(N)c(Cl)c2)cc1)NCC(O)c1cc(Cl)c(N)c(Cl)c1 (some centres undefined) | 890 nM |
| CN(Cc1cccc(F)c1)C1CCN(c2cc(NC(=O)c3ccc(F)cc3)ccn2)C1 (centres undefined) | 1230 nM |
| CCN(CCNC(=O)Cn1c(C)cc2cc([N+](=O)[O-])ccc21)c1cccc(C)c1 | 1010 nM |
| CC(=O)OC[C@H]1O[C@@H](C#Cc2ccccc2)[C@H](OC(C)=O)[C@@H](OC(C)=O)[C@@H]1OC(C)=O | 280 nM |
| CC[C@H](C)CNC(=O)c1cccc(-c2ccc(CN3CCC(N4CCCC4)CC3)cc2)n1 | 790 nM |
